Assay results published in patent publication US8445542B2, “Methods of accelerating muscle growth, decreasing fat deposits and improving feed efficiency in livestock animals” (Bridge Pharma, Inc., priority 2006, dated 2013).

Legend:
[1] = system: Airway smooth muscle tissues; assay: Airway smooth muscle contracted by carbachol; conditions: ongoing studies
Description: Airway smooth muscle tissues were contracted by carbachol. The inhibitory effects of isomers, enantiomeric pairs and a racemic mixture of ractopamine are being investigated.
Test results from these functional studies verify and support the results from the receptor binding studies.

[2] = system: adrenergic beta-receptor; assay: Adrenergic beta-receptor stimulating activity of the isomers; conditions: compared with RR-ractopamine; this document and Shappell et al, 2000
Description: J. Anim. Sci. 2000, 78: 699-708, which publication is hereby included in its entirety by reference.)

[3] = system: livestock animals; conditions: Marchant-Forde et al., cited from earlier work; for tachycardia in livestock animals: 2003 and London et al. 2005
[4] = system: laboratory animals; assay: Neuropharmacological profile (Irwin test), repeated oral administration
[5] = biological target: adrenergic beta-1 receptors (Homo sapiens, UniProt P08588); assay: Receptor binding studies, beta-1
Description: Interesting and important advantages of receptor selectivity by RR-ractopamine were found.

[6] = system: mice; assay: Spontaneous motor activity in mice (part of Irwin tests); assay type: in vivo; conditions: oral
[7] = biological target: porcine adrenergic β-2 receptors (Sus scrofa, UniProt Q28997); conditions: Mills et al., 2003; cited from earlier work
[8] = Optical stability
[9] = system: mice; assay: Stress testing in mice, methodology of Aberg (U.S. Pat. No. 6,372,799)
[10] = biological target: beta-3 receptors (Homo sapiens, UniProt P13945); conditions: background statement; cited from earlier work
[11] = system: adrenergic alpha-receptors; conditions: isolated smooth and cardiac muscle tissues of rat and guinea pig; Colbert et al. 1991; cited from earlier work
[12] = system: adrenergic beta-receptors in adipose tissue; conditions: animals exposed to the drug; Spurlock et al. 1994; cited from earlier work
[13] = biological target: adrenergic beta-3 receptors (Homo sapiens, UniProt P13945); assay: Receptor binding, beta-3 (present studies)
Sequence of adrenergic beta-3 receptors (P13945 whole entry): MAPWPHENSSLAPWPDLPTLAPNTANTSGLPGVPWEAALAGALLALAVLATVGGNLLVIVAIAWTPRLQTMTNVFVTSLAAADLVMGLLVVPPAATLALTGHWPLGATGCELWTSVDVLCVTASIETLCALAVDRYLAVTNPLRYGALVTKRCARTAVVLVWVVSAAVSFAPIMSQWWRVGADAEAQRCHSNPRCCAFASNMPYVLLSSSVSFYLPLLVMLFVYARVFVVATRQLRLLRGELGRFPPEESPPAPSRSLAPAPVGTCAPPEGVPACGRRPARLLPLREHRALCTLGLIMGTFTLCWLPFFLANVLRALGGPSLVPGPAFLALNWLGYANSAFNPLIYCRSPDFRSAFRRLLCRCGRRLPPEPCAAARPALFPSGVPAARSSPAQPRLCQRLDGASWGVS

Sequence of beta-3 receptors (P13945 whole entry): as above
Sequence of porcine adrenergic β-2 receptors (Q28997 whole entry): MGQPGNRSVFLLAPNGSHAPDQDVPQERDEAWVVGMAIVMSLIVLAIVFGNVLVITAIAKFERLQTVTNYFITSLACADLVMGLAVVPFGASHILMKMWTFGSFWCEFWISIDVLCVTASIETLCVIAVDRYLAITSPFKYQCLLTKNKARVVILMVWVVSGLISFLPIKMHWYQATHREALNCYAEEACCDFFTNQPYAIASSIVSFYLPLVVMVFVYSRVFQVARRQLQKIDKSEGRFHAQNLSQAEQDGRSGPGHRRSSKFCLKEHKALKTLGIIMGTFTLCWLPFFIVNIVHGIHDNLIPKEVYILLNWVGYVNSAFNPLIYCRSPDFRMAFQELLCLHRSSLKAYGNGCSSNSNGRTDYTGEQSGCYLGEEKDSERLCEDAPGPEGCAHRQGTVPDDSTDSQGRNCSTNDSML
Sequence of adrenergic beta-1 receptors (P08588 whole entry): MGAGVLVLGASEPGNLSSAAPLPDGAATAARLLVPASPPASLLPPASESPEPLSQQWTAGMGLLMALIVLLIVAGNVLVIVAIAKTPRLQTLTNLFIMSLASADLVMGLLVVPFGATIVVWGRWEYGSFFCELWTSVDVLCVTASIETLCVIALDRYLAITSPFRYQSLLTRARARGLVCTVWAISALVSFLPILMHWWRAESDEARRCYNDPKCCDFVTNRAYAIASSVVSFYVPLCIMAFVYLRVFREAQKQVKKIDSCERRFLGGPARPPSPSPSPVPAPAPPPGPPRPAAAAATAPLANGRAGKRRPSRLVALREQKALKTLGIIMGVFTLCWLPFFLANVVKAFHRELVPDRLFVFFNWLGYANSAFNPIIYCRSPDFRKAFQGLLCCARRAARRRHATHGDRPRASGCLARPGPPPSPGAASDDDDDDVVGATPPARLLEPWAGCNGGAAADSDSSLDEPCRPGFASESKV

Compound: C[C@@H](CCc1ccc(O)cc1)NC[C@@H](O)c1ccc(O)cc1 (racemic) [SS-ractopamine]
- airway smooth muscle relaxing activity [1]: very weak activity
- adrenergic beta-receptor stimulating activity [2]: completely devoid of adrenergic beta-receptor stimulating activity

Compound: CC(C)(C)NC[C@H](O)c1ccc(O)c(CO)c1 [R-salbutamol]
- tachycardia in livestock animals [3]: not causing tachycardia
- stress in Irwin test ([4]; repeated oral administration): no stress

Compound: RR-4-hydroxy-a-[[[3-(4-hydroxyphenyl)-1-methylpropyl]amino]methyl]benzenemethanol [RR-ractopamine]
- affinity for adrenergic beta-1 receptors compared with the racemic mixture of all four isomers [5]: higher affinity
- effect on spontaneous motor activity [6]: no statistically significant effects
- binding affinity relative to the racemic mixture of all four isomers [7]: about 2.5 times
- optical stability [8]: optically stable
- CNS-mediated stress ([9]; mouse, in vivo): not causing stress
- stress in Irwin test ([4]; mouse, in vivo, po): did not cause stress

Compound: CC(C)(C)NCC(O)c1ccc(O)c(CO)c1 (centres unmarked) [salbutamol]
- affinity for beta-3 receptors [10]: negligible affinity

Compound: CC(CCc1ccc(O)cc1)NCC(O)c1ccc(O)cc1 (centres unmarked) [RS]
- adrenergic beta-receptor stimulating activity [2]: reduced beta-receptor activity

Compound: CC(CCc1ccc(O)cc1)NCC(O)c1ccc(O)cc1.Cl (racemic) [racemic ractopamine, 4-hydroxy-a-[[[3-(4-hydroxyphenyl)-1-methylpropyl]amino]methyl]benzenemethanol hydrochloride]
- effect on adrenergic alpha-receptors [11]: no significant effect
- affinity for beta-3 receptors [10]: negligible affinity
- reduction of the concentration of adrenergic beta-receptors in adipose tissue [12]: 50%
- CNS-mediated stress in livestock animals [3]; 2003: cause CNS-mediated stress
- tachycardia in livestock animals [3]: significant tachycardia
- affinity for adrenergic beta-3 receptors [13]: neither racemic ractopamine nor any of the ractopamine isomers had affinity
- CNS-mediated stress ([9]; mice, ongoing testing): demonstrate CNS-mediated stress
- stress in Irwin test ([4]; repeated oral administration): produced increased stress
